According to patent publication US20090018106A1, “INTRAVENOUS FORMULATIONS OF PYRIDOXAL 5'- PHOSPHATE AND METHOD OF PREPARATION” (Medicure International Inc., priority 2005, published 2009):
Read-outs that look alike come from different tables or passages of the source. Each block holds one molecule with its values, some of them ahead of it.

Experiment: Single intravenous dose escalation of P5P, plasma pharmacokinetics (Examples Two and Three)
Assay type: in vivo, human
Conditions: for Cmax / MRT / Tmax / half-life / AUC(0-inf) / AUC(0-t): both sexes, human; for Cmax / MRT / Tmax / half-life: plasma, iv; for Significance of b1, lnAUCi / Significance of b1, lnCmax / Significance of b1, lnMRT / Significance of b1, lnThalf / Coef. for Dose (b1), lnAUCi / Coef. for Dose (b1), lnCmax / Coef. for Dose (b1), lnMRT / Coef. for Dose (b1), lnThalf / Intercept (b0), lnAUCi / Intercept (b0), lnCmax / Intercept (b0), lnMRT / Intercept (b0), lnThalf: ln(pK Parameter) = b0 + b1 * ln (Dose); for Coef. for Dose (b1), lnAUCi / Coef. for Dose (b1), lnCmax / Coef. for Dose (b1), lnMRT / Coef. for Dose (b1), lnThalf / Intercept (b0), lnAUCi / Intercept (b0), lnCmax / Intercept (b0), lnMRT / Intercept (b0), lnThalf: single iv 1-20 mg/kg; for dose relationship of plasma AUCinf and Cmax: single iv P5P 1-20 mg/kg
Description: A phase one clinical trial was conducted to compare the pharmacokinetics of intravenously administered P5P and orally administered P5P. The trial was a single dose escalation study.
For intravenous administration, P5P was administered by bolus injection under fasting conditions. The following doses of P5P were studied: 1, 5, 10, and 20 mg/kg. 6 subjects were assigned to each dosage group.
P5P, pyridoxal, and 4-pyridoxic acid were evaluated in both plasma and urine over a 24 hour interval following either intravenous or oral dosing. The results are set out below in Tables 2 and 3.
Methodology—This was a single-blind, single-dose escalation, non-randomized, 4-phase, non-crossover study designed to evaluate the safety and […] subjects under fasting conditions and to estimate pharmacokinetic parameters of P5P.
Subjects were assigned to one of the four groups (six subjects per group) under fasting conditions.
Concentrations of pyridoxal-5′-phosphate (P5P) were measured from the plasma samples collected over a 24-bour interval after dosing in each phase.
Pharmacokinetic parameters: AUCt, AUCinf, Cmax, Tmax, Kel, Thalf, Vd, CL, MRT and F were estimated based on pyridoxal-5′-phosphate (P5P) plasma levels for each subject that was in the final data set.
The test product used was a P5P Intravenous Injectable Solution, 50 mg/ml, which was prepared in accordance with the methods of Example 1 (CanAm BioResearch Inc. Canada); Lot No.: LP1459: Manufacturing Date: 12/03. A single 1, 5, 10 or 20 mg/kg dose was given by intravenous injection. The duration of treatment was a single dose.
Secondary Endpoint—Pharmacokinetic (PK) Parameters—Plasma concentrations of pyridoxal-5′-phosphate (P5P) were measured by a validated analytical method. Based on these concentration levels, AUCt, AUCinf, Cmax, Tmax, Kel, Thalf, Vd, CL, MRT and F were estimated.
Statistical Methods—Descriptive statistics were calculated by treatments for the estimated pharmacokinetic parameters.

[1] = Group 1, P5P 1 mg/kg single iv, plasma PA, mean
[2] = Group 2, P5P 5 mg/kg single iv, plasma PA, mean
[3] = Group 3, P5P 10 mg/kg single iv, plasma PA, mean
[4] = Group 4, P5P 20 mg/kg single iv, plasma PA, mean
[5] = 1 mg/kg, Group 1, P5P 1 mg/kg single iv, plasma PA, mean
[6] = 5 mg/kg, Group 2, P5P 5 mg/kg single iv, plasma PA, mean
[7] = 10 mg/kg, Group 3, P5P 10 mg/kg single iv, plasma PA, mean
[8] = 20 mg/kg, Group 4, P5P 20 mg/kg single iv, plasma PA, mean
[9] = over all single iv doses of P5P (1-20 mg/kg), read-out: apparent elimination half-life (converted)
[10] = Group 1, P5P 1 mg/kg single iv, plasma PAL, mean
[11] = Group 2, P5P 5 mg/kg single iv, plasma PAL, mean
[12] = Group 3, P5P 10 mg/kg single iv, plasma PAL, mean
[13] = Group 4, P5P 20 mg/kg single iv, plasma PAL, mean
[14] = 1 mg/kg, Group 1, P5P 1 mg/kg single iv, plasma PAL, mean
[15] = 5 mg/kg, Group 2, P5P 5 mg/kg single iv, plasma PAL, mean
[16] = 10 mg/kg, Group 3, P5P 10 mg/kg single iv, plasma PAL, mean
[17] = 20 mg/kg, Group 4, P5P 20 mg/kg single iv, plasma PAL, mean

Kel [1]: 0.311 h⁻¹ | Kel [2]: 0.332 h⁻¹ | Kel [3]: 0.268 h⁻¹ | Kel [4]: 0.216 h⁻¹ | Cmax [5]: 419 ng/mL | MRT [5]: 4.5 h | Tmax [5]: 1.04 h | half-life (1 mg/kg, Group 1, P5P 1 mg/kg single iv, plasma PA, mean, read-out: T½ (converted)): 2.82 h | Cmax [6]: 2450 ng/mL | MRT [6]: 3.48 h | Tmax [6]: 0.71 h | half-life (5 mg/kg, Group 2, P5P 5 mg/kg single iv, plasma PA, mean, read-out: T½ (converted)): 2.12 h | Cmax [7]: 5360 ng/mL | MRT [7]: 3.85 h | Tmax [7]: 0.74 h | half-life (10 mg/kg, Group 3, P5P 10 mg/kg single iv, plasma PA, mean, read-out: T½ (converted)): 2.73 h | Cmax [8]: 16100 ng/mL | MRT [8]: 4.13 h | Tmax [8]: 0.73 h | half-life (20 mg/kg, Group 4, P5P 20 mg/kg single iv, plasma PA, mean, read-out: T½ (converted)): 3.48 h | half-life [9]: 2 to 3.5 h | AUC(0-inf) [1]: 1990 ng·h/mL | AUC(0-t) (Group 1, P5P 1 mg/kg single iv, plasma PA, mean, read-out: AUC(0-t)): 1500 ng·h/mL | AUC(0-inf) [2]: 10700 ng·h/mL | AUC(0-t) (Group 2, P5P 5 mg/kg single iv, plasma PA, mean, read-out: AUC(0-t)): 10500 ng·h/mL | AUC(0-inf) [3]: 23000 ng·h/mL | AUC(0-t) (Group 3, P5P 10 mg/kg single iv, plasma PA, mean, read-out: AUC(0-t)): 22700 ng·h/mL | AUC(0-inf) [4]: 53000 ng·h/mL | AUC(0-t) (Group 4, P5P 20 mg/kg single iv, plasma PA, mean, read-out: AUC(0-t)): 51900 ng·h/mL | Significance of b1, lnAUCi: <0.0001 | Significance of b1, lnCmax: <0.0001 | Significance of b1, lnMRT: 0.7995 | Significance of b1, lnThalf: 0.2604 | Coef. for Dose (b1), lnAUCi: 1.10 | Coef. for Dose (b1), lnCmax: 1.20 | Coef. for Dose (b1), lnMRT: −0.01 | Coef. for Dose (b1), lnThalf: 0.08 | Intercept (b0), lnAUCi: 0.62 | Intercept (b0), lnCmax: −0.98 | Intercept (b0), lnMRT: 1.37 | Intercept (b0), lnThalf: 0.82
SMILES: Cc1ncc(CO)c(C(=O)O)c1O [PA, 4-pyridoxic acid]
dose relationship of plasma AUCinf and Cmax: increase more than expected based on dose

Kel [10]: 0.198 h⁻¹ | Kel [11]: 0.18 h⁻¹ | Kel [12]: 0.167 h⁻¹ | Kel [13]: 0.177 h⁻¹ | Cmax [14]: 591 ng/mL | MRT [14]: 3.7 h | Tmax [14]: 0.46 h | half-life (1 mg/kg, Group 1, P5P 1 mg/kg single iv, plasma PAL, mean, read-out: T½ (converted)): 3.96 h | Cmax [15]: 2480 ng/mL | MRT [15]: 4.4 h | Tmax [15]: 0.71 h | half-life (5 mg/kg, Group 2, P5P 5 mg/kg single iv, plasma PAL, mean, read-out: T½ (converted)): 4.25 h | Cmax [16]: 13300 ng/mL | MRT [16]: 3.68 h | Tmax [16]: 0.42 h | half-life (10 mg/kg, Group 3, P5P 10 mg/kg single iv, plasma PAL, mean, read-out: T½ (converted)): 4.2 h | Cmax [17]: 25900 ng/mL | MRT [17]: 3.98 h | Tmax [17]: 0.32 h | half-life (20 mg/kg, Group 4, P5P 20 mg/kg single iv, plasma PAL, mean, read-out: T½ (converted)): 4.01 h | half-life [9]: ~4 h | AUC(0-inf) [10]: 2070 ng·h/mL | AUC(0-t) (Group 1, P5P 1 mg/kg single iv, plasma PAL, mean, read-out: AUC (0-t)): 2020 ng·h/mL | AUC(0-inf) [11]: 10400 ng·h/mL | AUC(0-t) (Group 2, P5P 5 mg/kg single iv, plasma PAL, mean, read-out: AUC (0-t)): 10100 ng·h/mL | AUC(0-inf) [12]: 39500 ng·h/mL | AUC(0-t) (Group 3, P5P 10 mg/kg single iv, plasma PAL, mean, read-out: AUC (0-t)): 39100 ng·h/mL | AUC(0-inf) [13]: 95200 ng·h/mL | AUC(0-t) (Group 4, P5P 20 mg/kg single iv, plasma PAL, mean, read-out: AUC (0-t)): 94400 ng·h/mL | Significance of b1, lnAUCi: <0.0001 | Significance of b1, lnCmax: <0.0001 | Significance of b1, lnMRT: 0.5671 | Significance of b1, lnThalf: 0.5604 | Coef. for Dose (b1), lnAUCi: 1.30 | Coef. for Dose (b1), lnCmax: 1.30 | Coef. for Dose (b1), lnMRT: 0.02 | Coef. for Dose (b1), lnThalf: 0.03 | Intercept (b0), lnAUCi: 0.56 | Intercept (b0), lnCmax: −0.72 | Intercept (b0), lnMRT: 1.33 | Intercept (b0), lnThalf: 1.33
SMILES: Cc1ncc(CO)c(C=O)c1O [PAL, pyridoxal]
dose relationship of plasma AUCinf and Cmax: increase more than expected based on dose
